# Data from PubChem BioAssay (NCI).
#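 Five compound concentrations were applied to cells in 96-well plates for 48 hours; endpoints were derived by simple linear interpolation of the resulting dose-response curve. GI50 = concentration required for 50% inhibition of growth. TGI: concentration producing complete growth inhibition.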
# Tests used:
# Assay in all cases: DTP human tumour cell line panel, 48 h
# SF-539 CNS = system: SF-539 CNS
# MALME-3M melanoma = system: MALME-3M melanoma
# CAKI-1 renal = system: CAKI-1 renal
# IGROV1 ovarian = system: IGROV1 ovarian
# SW-620 colon = system: SW-620 colon
# UACC-62 melanoma = system: UACC-62 melanoma
# OVCAR-8 ovarian = system: OVCAR-8 ovarian
# DU-145 prostate = system: DU-145 prostate
# MDA-MB-231 breast = system: MDA-MB-231 breast
# T-47D breast = system: T-47D breast
Structure (SMILES),GI50 (SF-539 CNS),TGI (SF-539 CNS),GI50 (MALME-3M melanoma),TGI (MALME-3M melanoma),GI50 (CAKI-1 renal),TGI (CAKI-1 renal),GI50 (IGROV1 ovarian),TGI (IGROV1 ovarian),GI50 (SW-620 colon),TGI (SW-620 colon),GI50 (UACC-62 melanoma),TGI (UACC-62 melanoma),GI50 (OVCAR-8 ovarian),TGI (OVCAR-8 ovarian),GI50 (DU-145 prostate),TGI (DU-145 prostate),GI50 (MDA-MB-231 breast),TGI (MDA-MB-231 breast),GI50 (T-47D breast),TGI (T-47D breast)
CCOC(=O)[CH-]C(=O)C12CC3CC(CC(C3)C1)C2.CCOC(=O)[CH-]C(=O)C12CC3CC(CC(C3)C1)C2.CC[O-].CC[O-].[Ti+4],> 100 µM,> 100 µM,> 100 µM,> 100 µM,> 100 µM,> 100 µM,> 100 µM,> 100 µM,> 100 µM,> 100 µM,> 100 µM,> 100 µM,> 100 µM,> 100 µM,,,,,,
COc1ccc(NC(=O)CC/C(CC(=O)c2ccco2)=N/NC(=O)C(N)=O)cc1,,> 100 µM,,> 100 µM,,> 100 µM,,> 100 µM,,> 100 µM,,> 100 µM,,> 100 µM,,,,,,
Cc1ccc(S(=O)(=O)N/N=C2\CCCCC23CCC(=O)NC3)cc1 (stereo not given),,> 100 µM,,> 100 µM,,> 100 µM,,> 100 µM,,> 100 µM,,> 100 µM,,> 100 µM,,,,,,
CN(C)C/C=C/C(=O)Nc1ccc(C(=O)N[C@@]2(C)CCC[C@@H](Nc3ncc(Cl)c(-c4c[nH]c5ccccc45)n3)C2)nc1,0.0195 µM,0.0929 µM,,,< 0.01 µM,1.11 µM,,,< 0.0106 µM,0.36 µM,< 0.01 µM,0.0728 µM,0.0154 µM,1.19 µM,0.0153 µM,1.09 µM,0.0145 µM,1.22 µM,0.0218 µM,0.565 µM
N/N=C\c1c2ccccc2c(=O)n2c1oc1ccccc12,11.4 µM,23.6 µM,,,14.2 µM,27.3 µM,,,15.1 µM,32.5 µM,6.82 µM,19.7 µM,19.4 µM,49.4 µM,10.6 µM,24.9 µM,10.8 µM,25 µM,20.5 µM,39.9 µM
COc1ccc([C@@]2(O)c3c(ccc(O)c3OC)[C@H]2OC)c(OC)c1,,,,> 100 µM,,> 100 µM,,> 100 µM,,> 100 µM,,,,> 100 µM,,,,,,
[N-]=[N+]=NCCCn1c2c(c3ccc([N+](=O)[O-])cc3c1=O)C(=O)c1ccccc1-2,,,,,5.11 µM,43.3 µM,> 100 µM,> 100 µM,5.26 µM,> 100 µM,29.6 µM,> 100 µM,,0.061 µM,> 100 µM,> 100 µM,3.57 µM,43.2 µM,,
N#CCC(=O)N/N=C1/C(=O)N(c2ccc(Cl)cc2)C(=O)C(=O)C1c1nc2ccccc2s1 (stereo not given),,,,> 100 µM,,> 100 µM,,> 100 µM,,> 100 µM,,> 100 µM,,> 100 µM,,,,,,
O=C(Nc1cccc(O)c1)C(=O)C1C(=O)NC(=S)NC1=O,,> 100 µM,,> 100 µM,,> 100 µM,,> 100 µM,,> 100 µM,,> 100 µM,,> 100 µM,,,,,,
NC(CCCC(N)P(=O)(O)O)P(=O)(O)O (stereo not given),,> 100 µM,,> 100 µM,,> 100 µM,,> 100 µM,,> 100 µM,,> 100 µM,,> 100 µM,,,,,,
O=C(Nc1ccc(C(F)(F)F)cc1[N+](=O)[O-])C(=O)C1NC(=S)NC1=O (stereo not given),,> 100 µM,,> 100 µM,,> 100 µM,,> 100 µM,,> 100 µM,,> 100 µM,,> 100 µM,,,,,,
O=S(=O)(C1=CC(S(=O)(=O)c2ccccc2)CN(Cc2ccccc2)C1c1cccc2ccccc12)c1ccccc1 (stereo not given),,> 69 µM,,> 69 µM,,> 69 µM,,> 69 µM,,> 69 µM,,> 69 µM,,> 69 µM,,,,,,
CC(=O)C1C(c2ccccc2)C2(C)OC(=O)C(C#N)C12C (stereo not given),,> 100 µM,,> 100 µM,,,,> 100 µM,,> 100 µM,,> 100 µM,,> 100 µM,,,,,,
COc1ccc2c(c1)OC1=C(C(=O)OC1)C2c1cc(OC)c2c(c1)OCCO2 (stereo not given),0.048 µM,> 100 µM,,,0.0411 µM,> 100 µM,0.128 µM,> 100 µM,0.0393 µM,> 100 µM,0.0456 µM,> 100 µM,0.0712 µM,> 100 µM,0.0915 µM,,0.156 µM,> 94.6 µM,,
CCCCCCCCCCCCCP(=O)(O)O,,> 100 µM,,> 100 µM,,,,> 100 µM,,> 100 µM,,> 100 µM,,> 100 µM,,,,,,
COc1cc(NCC(C#N)C#N)ccc1N=Nc1ccc(Cl)cc1,,51.6 µM,,71.4 µM,,,,71.7 µM,,41.9 µM,,23.8 µM,,> 100 µM,,,,,,
